In patent US20110189149A1, “New Uses of Lactic Acid Bacteria and Bifidobacteria” (priority 2008, published 2011):

Assay: Intraperitoneal insulin sensitivity test (IPIST)
Format: in vivo, mice
Conditions: fasted 16 hours, 0.5 IU/kg intraperitoneal, after 30 minutes
Experimental: Nineteen weeks after the beginning of the study, 5 mice in each group (control diet and HFD) were weighed and subjected to an intraperitoneal insulin sensitivity test (IPIST, the protocol of which is detailed below) to check the insulin resistance of the mice. At week 20, glycaemia tests, the protocol of which is detailed below, were performed. Just after the end of these tests, mice received daily 10^9 CFU of Lactobacillus acidophilus NCFM/mouse/day by oral gavage, for 3 weeks. At week 23, animals were sacrificed after weighing and after determination of glycaemia.
Mice were fasted for 16 hours and received an intraperitoneal injection of human recombinant insulin (0.5 International Units/kg body weight); Actrapid®, Novo-Nordisk, Bagsvaerd, Denmark). Blood glucose was assayed immediately before and at 15, 30, 45, and 60 minutes after injection using a digital glucometer (Medisense Optium, Abbott, Rungis, France).

## insulin: human recombinant insulin (Actrapid, Novo-Nordisk) injected intraperitoneally in the IPIST test
Control diet group
  decrease of glycaemia after insulin injection: around 70%
high-fat diet group
  decrease of glycaemia after insulin injection: around 45%
